# Target: T1, CHK1 kinase (Homo sapiens, UniProt O14757)
# T1 construct: glutathione S-transferase (GST); made in house; host or cells: Sf21 insect cells (S. frugiperda), baculovirus
# T1 sequence (O14757 1-476): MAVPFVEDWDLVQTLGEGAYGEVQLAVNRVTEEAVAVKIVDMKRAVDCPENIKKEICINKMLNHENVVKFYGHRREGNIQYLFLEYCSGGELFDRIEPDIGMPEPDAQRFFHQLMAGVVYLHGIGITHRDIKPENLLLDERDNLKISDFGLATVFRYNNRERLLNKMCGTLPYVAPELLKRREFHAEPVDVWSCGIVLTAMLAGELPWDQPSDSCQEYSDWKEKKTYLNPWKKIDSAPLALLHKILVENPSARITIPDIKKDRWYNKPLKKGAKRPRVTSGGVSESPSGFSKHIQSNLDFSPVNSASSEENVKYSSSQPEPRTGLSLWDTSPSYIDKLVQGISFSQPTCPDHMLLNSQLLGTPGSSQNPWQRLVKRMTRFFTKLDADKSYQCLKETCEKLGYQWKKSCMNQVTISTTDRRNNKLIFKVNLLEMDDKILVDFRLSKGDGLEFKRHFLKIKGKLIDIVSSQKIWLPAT
# Experiment: Flashplate method (CHK1), measurement of the CHK1 kinase activity
# Assay type: biochemical
# Conditions: class symbols; 'Affinity to receptors'
# Description: CHK1 kinase is expressed for the purposes of protein production in insect cells (Sf21; S. frugiperda) and subsequent purification by affinity chromatography as fusion protein with glutathione S-transferase in a baculovirus expression vector. The cultivation, infection and digestion of the cells as well as the purification of the fusion protein by column chromatography are carried out in accordance with manufacturer-oriented generic working instructions.
# The kinase activity is measured using various available measurement systems. In the scintillation proximity method (Sorg et al., J. of. Biomolecular Screening, 2002, 7, 11-19), the flashplate method or the filter binding test, the radioactive phosphorylation of a protein or peptide as substrate is measured using radioactively labelled ATP (γ^32P-ATP, (γ^33P-ATP). In the case of the presence of an inhibitory compound, a reduced radioactive signal, or none at all, can be detected. Furthermore, homogeneous time-resolved fluorescence resonance energy transfer (HTR-FRET) and fluorescence polarisation (FP) technologies are useful as assay methods (Sills et al., J. of Biomolecular Screening, 2002, 191-214).
# The test plates used are 384-well streptavidin-coated Flashplates Plus® from Perkin Elmer (Cat.No. SMP410A001PK). The assay plate is equilibrated with 75 μl of assay buffer per well 30 min before commencement of the experiment. The buffer is sucked out before commencement of the experiment, and the components of the kinase reaction described below are pipetted onto the plate.
# CHK1 kinase, a biotinylated substrate peptide (for example CHKtide: […]), is incubated with radioactively labelled ATP in the presence and absence of test substances at 30° Celsius and a total volume of 50 μl. The reaction is terminated using 25 μl of a 0.2 M EDTA solution. After incubation for 30 min at room temperature, the supernatants are filtered off with suction, and the wells are washed three times with 100 μl of 0.9% NaCl solution each time. The measurement of the bound radioactivity is carried out by means of a scintillation measuring instrument (Topcount NXT, Perkin-Elmer).
# The full value used is the inhibitor-free kinase reaction. This should be approximately in the range 3000-4000 cpm. The pharmacological zero value used is staurosporin in a final concentration of 0.1 μM. The inhibitory values (IC50) are determined using the program RS1_MTS ( ).
# Kinase reaction conditions per well:
# 0.15 μg of CHKtide ([…])
# 50 μl total volume (1-fold assay buffer reaction conditions)
# Solutions used: • assay buffer:
# 0.1 mM Titriplex VI (EGTA
# 10 mM magnesium acetate 0.1% mercaptoethanol
# pH=7.5 (to be set using hydrochloric acid) Bovine serum albumin (final concentration 0.1%) is not added until just before use. • stop solution:
# 0.2 M TitriplexIII (EDTA)
# • γ^33P-ATP (Perkin-Elmer) • CHK1 kinase preparations: specific activity>50 U/mg • CHKtide solution: biotinylated peptide substrate (Biotrend) stored as stock solution (concentration 0.15 mg/ml).
row,IC50,SMILES
1,> 1 µM,"O=c1c(Nc2ccc3[nH]cnc3c2)c(N2CCc3ccc(O)cc3C2)c1=O [Compound A82, 3-(1H-benzimidazol-5-ylamino)-4-(7-hydroxy-3,4-dihydro-1H-isoquinolin-2-yl)cyclobut-3-ene-1,2-dione]"
2,> 1 µM,"COc1cccc([C@H](C)Nc2c(Nc3ccc4[nH]cnc4c3)c(=O)c2=O)c1 [Compound A83, 3-(1H-benzimidazol-5-ylamino)-4-[(S)-1-(3-methoxyphenyl)ethylamino]cyclobut-3-ene-1,2-dione]"
3,< 1 µM,"O=c1c(NCc2ccc(F)c(O)c2)c(Nc2ccc3[nH]cnc3c2)c1=O [Compound A84, 3-(1H-benzimidazol-5-ylamino)-4-(4-fluoro-3-hydroxybenzylamino)cyclobut-3-ene-1,2-dione]"
4,> 1 µM,"COc1ccc(F)c(CNc2c(Nc3ccc4[nH]cnc4c3)c(=O)c2=O)c1 [Compound A85, 3-(1H-benzimidazol-5-ylamino)-4-(2-fluoro-5-methoxybenzylamino)cyclobut-3-ene-1,2-dione]"
5,> 1 µM,"O=c1c(NCc2cccc(O)c2Cl)c(Nc2ccc3[nH]cnc3c2)c1=O [Compound A86, 3-(1H-benzimidazol-5-ylamino)-4-(2-chloro-3-hydroxybenzylamino)cyclobut-3-ene-1,2-dione]"
6,< 1 µM,"O=c1c(NCc2ccc(O)c(O)c2)c(Nc2ccc3[nH]cnc3c2)c1=O [Compound A87, 3-(1H-benzimidazol-5-ylamino)-4-(3,4-di-hydroxybenzylamino)cyclobut-3-ene-1,2-dione]"
7,> 1 µM,"O=c1c(NCc2ccc3[nH]cnc3c2)c(Nc2ccc3[nH]cnc3c2)c1=O [Compound A88, 3-(1H-benzimidazol-5-ylamino)-4-[(1H-benzimidazol-5-ylmethyl)amino]cyclobut-3-ene-1,2-dione]"
8,> 1 µM,"Cc1nc2cc(Nc3c(NCc4cccc(O)c4)c(=O)c3=O)ccc2[nH]1 [Compound A89, 3-(3-hydroxybenzylamino)-4-(2-methyl-1H-benzimidazol-5-ylamino)cyclobut-3-ene-1,2-dione]"
9,> 1 µM,"O=c1c(NCc2ccc3[nH]c(C(F)(F)F)nc3c2)c(Nc2ccc3[nH]cnc3c2)c1=O [Compound A90, 3-(1H-benzimidazol-5-ylamino)-4-[(2-trifluoromethyl-1H-benzimidazol-5-ylmethyl)-amino]cyclobut-3-ene-1,2-dione]"
10,> 1 µM,"COc1ccc(CNc2c(Nc3ccc4[nH]cnc4c3)c(=O)c2=O)cc1O [Compound A91, 3-(1H-benzimidazol-5-ylamino)-4-(3-hydroxy-4-methoxybenzylamino)cyclobut-3-ene-1,2-dione]"
11,> 1 µM,"Cc1ccc(CNc2c(Nc3ccc4[nH]cnc4c3)c(=O)c2=O)cc1O [Compound A92, 3-(1H-benzimidazol-5-ylamino)-4-(3-hydroxy-4-methylbenzylamino)cyclobut-3-ene-1,2-dione]"
12,> 1 µM,"CCOc1ccc(O)cc1CNc1c(Nc2ccc3[nH]cnc3c2)c(=O)c1=O [Compound A93, 3-(1H-benzimidazol-5-ylamino)-4-(2-ethoxy-5-hydroxybenzylamino)cyclobut-3-ene-1,2-dione]"
13,< 1 µM,"O=c1c(NCc2cc(O)cc(O)c2)c(Nc2ccc3[nH]cnc3c2)c1=O [Compound A94, 3-(1H-benzimidazol-5-ylamino)-4-(3,5-di-hydroxybenzylamino)cyclobut-3-ene-1,2-dione]"
14,> 1 µM,"NC(=O)c1cccc(CNc2c(Nc3ccc4[nH]cnc4c3)c(=O)c2=O)c1 [Compound A95, 3-(1H-benzimidazol-5-ylamino)-4-(3-amino-carbonylbenzylamino)cyclobut-3-ene-1,2-dione]"
15,> 1 µM,"CN(C)Cc1c[nH]c2cc(CNc3c(Nc4ccc5[nH]cnc5c4)c(=O)c3=O)ccc12 [Compound A96, 3-(1H-benzimidazol-5-ylamino)-4-[(3-dimethylaminomethyl-1H-indol-6-ylmethyl)-amino]cyclobut-3-ene-1,2-dione]"
16,> 1 µM,"Cc1c(O)cccc1CNc1c(Nc2ccc3[nH]cnc3c2)c(=O)c1=O [Compound A97, 3-(1H-benzimidazol-5-ylamino)-4-(3-hydroxy-2-methylbenzylamino)cyclobut-3-ene-1,2-dione]"
17,> 1 µM,"Cc1nc2cc(Nc3c(NCc4cccc(O)c4)c(=O)c3=O)ccc2s1 [Compound A98, 3-(3-hydroxybenzylamino)-4-(2-methylbenzo-thiazol-5-ylamino)cyclobut-3-ene-1,2-dione]"
18,> 1 µM,"O=C(O)CC(Nc1c(Nc2ccc3[nH]cnc3c2)c(=O)c1=O)c1cccc(O)c1 (stereo not shown) [Compound A99, 3-[2-(1H-benzimidazol-5-ylamino)-3,4-dioxo-cyclobut-1-enylamino]-3-(3-hydroxyphenyl)-propionic acid]"
19,> 1 µM,"CCOC(=O)CC(Nc1c(Nc2ccc3[nH]cnc3c2)c(=O)c1=O)c1cccc(O)c1 (stereo not shown) [Compound A100, ethyl 3-[2-(1H-benzimidazol-5-ylamino)-3,4-dioxocyclobut-1-enylamino]-3-(3-hydroxy-phenyl)propionate]"
20,< 1 µM,"COC(=O)CC(Nc1c(Nc2ccc3[nH]cnc3c2)c(=O)c1=O)c1cccc(O)c1 (stereo not shown) [Compound A101, methyl 3-[2-(1H-benzimidazol-5-ylamino)-3,4-dioxocyclobut-1-enylamino]-3-(3-hydroxy-phenyl)propionate]"
21,> 1 µM,"O=c1c(NCc2ccc3[nH]cc(-c4ccncc4)c3c2)c(Nc2ccc3[nH]cnc3c2)c1=O [Compound A102, 3-(1H-benzimidazol-5-ylamino)-4-[(3-pyridin-4-yl-1H-indol-5-ylmethyl)amino]cyclobut-3-ene-1,2-dione]"
22,> 1 µM,"O=c1c(NCc2cccc(O)c2F)c(Nc2ccc3[nH]cnc3c2)c1=O [Compound A103, 3-(1H-benzimidazol-5-ylamino)-4-(2-fluoro-3-hydroxybenzylamino)cyclobut-3-ene-1,2-dione]"
23,> 1 µM,"CCOc1cccc(CNc2c(Nc3ccc4[nH]cnc4c3)c(=O)c2=O)c1 [Compound A104, 3-(1H-benzimidazol-5-ylamino)-4-(3-ethoxy-benzylamino)cyclobut-3-ene-1,2-dione]"
24,> 1 µM,"O=C(CC(Nc1c(Nc2ccc3[nH]cnc3c2)c(=O)c1=O)c1cccc(O)c1)N1CCOCC1 (stereo not shown) [Compound A105, 3-(1H-benzimidazol-5-ylamino)-4-[1-(3-hydroxyphenyl)-3-morpholin-4-yl-3-oxo-propylamino]cyclobut-3-ene-1,2-dione]"
25,> 1 µM,"COCCOc1cccc(CNc2c(Nc3ccc4[nH]cnc4c3)c(=O)c2=O)c1 [Compound A106, 3-(1H-benzimidazol-5-ylamino)-4-[3-(2-methoxyethoxy)benzylamino]cyclobut-3-ene-1,2-dione]"
26,> 1 µM,"O=c1c(NCc2cccc(OCCO)c2)c(Nc2ccc3[nH]cnc3c2)c1=O [Compound A107, 3-(1H-benzimidazol-5-ylamino)-4-[3-(2-hydroxyethoxy)benzylamino]cyclobut-3-ene-1,2-dione]"
27,> 1 µM,"CN(C)CCOc1cccc(CNc2c(Nc3ccc4[nH]cnc4c3)c(=O)c2=O)c1 [Compound A108, 3-(1H-benzimidazol-5-ylamino)-4-[3-(2-di-methylaminoethoxy)benzylamino]cyclobut-3-ene-1,2-dione]"
28,> 1 µM,"CC(=O)NCCOc1cccc(CNc2c(Nc3ccc4[nH]cnc4c3)c(=O)c2=O)c1 [Compound A109, 3-(1H-benzimidazol-5-ylamino)-4-[3-(2-acetamidoethoxy)benzylamino]cyclobut-3-ene-1,2-dione]"

# Reference: US20080234266A1, “Squaric Acid Derivatives II” (priority 2005, published 2008)
